# Assay results as given in patent publication US20040235873A1, “Antiinflammatoric and antitussive compositions” (priority 2001, published 2004).
# Columns and labels:
# Format in all cases: in vivo, Hartley male guinea pigs
# [1] = system: LTD4-induced airway hypersensitiveness in guinea pigs; experiment: LTD4-induced airway hypersensitive reaction; conditions: for ID50 of airway hypersensitiveness inhibition: intraduodenal administration 30 minutes before LTD4 inhalation, guinea pigs; for Airway hypersensitiveness inhibition versus control group: orotic acid 10 to 30 mg/kg, zinc orotate 10, 30 mg/kg to the duodenum
# Method: This was to confirm the presence or absence of antiasthmatic effect of orotic acid and zinc orotate. Concretely, the effect of orotic acid and zinc orotate against leukotriene D4 (hereinafter abbreviated to LTD4)-induced airway hypersensitive reaction was investigated in the manner described below.
# Expression of LTD4-induced airway hypersensitiveness was carried out according to the method of Sato et al [Clinical and Experimental Allergy, 26, 957-963 (1996)], as shown below:
# (§1) Hartley male guinea pigs (from Nippon SLC) were raised at a constant temperature (22 to 23° C.) and a constant humidity (50 to 60%) for 2 weeks, and healthy animals of those having a body weight of from 150 to 250 g were used in the test. The guinea pigs were anesthetized with urethane (1.2 g/kg) and subjected to tracheotomy and cannulation. The tracheal cannula was connected to an artificial respiration device for small animals (Model 7025, UGO BASIL by VARASE), and artificial respiration (breathing rate, 60/min; 10 ml/kg) was performed. As an airway contraction index thereof, the pulmonary inflation pressure (hereinafter abbreviated to […], its unit being cmH2O) of the test animal was measured via a pressure transducer (TP-603, by Nippon Kodensha). In addition, a cannula was inserted into the carotid […] of the test animal, and the blood pressure through it was also measured via a pressure transducer (Life KitDX-360, by Nippon Kodensha). After the operation, the guinea pigs were left as such for about 5 minutes, and after the base PIP thereof was stabilized, the test with them was started. 50 μg/kg acetylcholine (hereinafter referred to as ACh, by Sigma) was intravenously administered to each test animal to induce airway contraction therein. After the elevated PIP was lowered to the base line thereof, ACh of the same concentration was again intravenously administered. This operation was repeated until the PIP increase (ΔPIP) was stabilized. After the ΔPIP stabilization was confirmed, ACh was intravenously administered
# (§2) (30 μg/kg or 40 μg/kg), and the value ΔPIP in this stage was referred to as a Pre value. 30 minutes thereafter, each test animal was made to inhale 0.1 µg/ml of LTD4 (by Funakoshi) for 30 seconds via an ultrasonic nebulizer (NE-U12, by Omron), and after 15 minutes, ACh was again intravenously administered (30 μg/kgor40μg/kg) to each test animal to induce airway contraction therein. The value ΔPIP in this stage was rendered as a Post value. Relative to those of the LTD4 administration group, the animals of the control group were made to inhale saline in place of LTD4. The Post value and the Pre value were compared with each other in the control group and the LTD4 administration group, and the difference was an index of airway hypersensitiveness expression.
# (§3) 30 minutes before the start of the LTD 4 inhalation, a test substance was administered to the duodenum of each test animal. In place of the test substance, 0.5% methyl cellulose (hereinafter abbreviated to MC) was administered to the animals of the control group relative to those of the test substance-administration group.
# The data obtained were expressed as the mean value±standard error thereof. A statistical analysis soft SAS was used for significance test. For significance test of two groups, paired t-test was carried out (FIG. 1, FIG. 2); and for comparison test of multiple groups, Bartlet test was followed by 1-way ANOVA and Dunnett's multiple comparison test. […]
# [2] = system: ovalbumin (OA)-sensitized guinea pigs; experiment: Cell invasion in bronchovesicular washing fluid (BALF) of ovalbumin-sensitized guinea pigs after antigen induction; conditions: for Number of eosinophils invaded in BALF / Number of the total cells invaded in BALF: 24 hours after induction
# Method: The present test was carried out according to the method mentioned below, with reference to the method of Lagente et al [Clin. Exp. Allergy, 23, 1002-1010 (1993)] and the method of Dunn et al [Am. Rev. Resp. Dis., 137, 541-547 ([…])].
# Hartley male guinea pigs (from Nippon Charles River) were raised at a constant temperature (22 to 23° C.) and a constant humidity (50 to 60%) and healthy animals of those having a body weight of from 350 to 450 g were used in the test. The guinea pigs were put in a plastic box (30×50×30 cm), and made to inhale 2 mg/ml of a solution of ovalbumin (hereinafter sometimes abbreviated to OA, from Sigma Aldrich) for30minutes, twice at an interval of 48 hours for […] sensitization. An ultrasonic nebulizer (NE-U12, by Omron) was used for the inhalation. Antigen induction in the test animals was carried out 13 to 15 days after the final sensitization, in the same plastic box as that for the sensitization. For it, the test animals were made to inhale 1% (w/v) OA solution for 15 minutes to induce reaction. Those of the control group with no OA inhalation were made to inhale saline.
# In this stage, a histamine H1-receptor antagonist, pyrilamine (by Sigma Aldrich) was intravenously administered (2 mg/kg) to the test animals 30 minutes before the antigen induction, for evading animal death owing to anaphylactic shock. Orotic acid, zinc orotate and a PDE4 inhibitor (rolipram, obtained through chemical synthesis) were orally administered one hour before the antigen induction. To those of the control group not administered with orotic acid, zinc orotate or rolipram, 0.5% (w/v) MC solution was administered.
# 24 to 72 hours after the antigen induction, the bronchovesicles of the test animals were washed (BAL). Namely, the sensitized guinea pigs were anesthetized with pentobarbital (intravenous-administration, 100 mg/kg), and 5 ml of saline was injected into the guinea pigs via a tracheal cannula through a disposable syringe (by Terumo). In about 5 seconds, the saline injected into the guinea pigs was recovered. This operation was repeated twice to collect the bronchovesicular washing fluid (BALF). BALF was centrifuged at 2500 rpm (1250 ×g) at 4° C. for 10 minutes. The supernatant was removed by suction, and the deposited cells were suspended in one ml of saline. In the suspension, the number of all leucocytes was counted with an automatic cell counter (Celltec MEK-4300, by Nippon Kodensha). A part of the cells were formed into a smear with Cytospin III (by Shand on Southern Instruments). […] Specifically, eosinophils (Eos), neutrophils (Neu), macrophages (Mac), lymphocytes (Lym) and other cells (Other) were counted, and their ratio was calculated. The number of the respective cells was calculated by multiplying the number of all leucocytes by the ratio of the cells counted in the fraction.
# The data obtained were expressed as the mean value±standard error thereof. A statistical analysis soft SAS was used for significance test. For significance test of the two groups, Student's t-test was carried out; and for comparison test of multiple groups, Bartlet test was followed by 1-way ANOVA and Dunnett's multiple comparison test. […]
# Orotic acid was orally administered 1 hour before the OA inhalation. The data obtained are expressed as the mean value ±standard error of 9 or 10 cases.
# Zinc orotate was orally administered 1 hour before the OA inhalation. The data obtained are expressed as the mean value±standard error of 9 or 10 cases. […]
# [3] = system: ACh-induced airway contraction in guinea pigs; experiment: Acetylcholine-induced pulmonary inflation pressure change before and after saline inhalation (preliminary test); conditions: for PIP increase (ΔPIP) induced by intravenous ACh, Post value / PIP increase (ΔPIP) induced by intravenous ACh, Pre value / Difference between Pre value and Post value of ACh-induced PIP increase: 30 mg/kg to the duodenum prior to saline inhalation; for PIP increase (ΔPIP) induced by intravenous ACh, Post value: after saline inhalation; for PIP increase (ΔPIP) induced by intravenous ACh, Post value / PIP increase (ΔPIP) induced by intravenous ACh, Pre value: mean±standard error of three cases; for PIP increase (ΔPIP) induced by intravenous ACh, Pre value: before saline inhalation; for Difference between Pre value and Post value of ACh-induced PIP increase: paired t-test
# Method: as §1, §2, §3
# The data obtained were expressed as the mean value±standard error thereof. A statistical analysis soft SAS was used for significance test. For significance test of two groups, paired t-test was carried out (FIG. 1, FIG. 2); and for comparison test of multiple groups, Bartlet test was followed by 1-way ANOVA and Dunnett's multiple comparison test. In every test, p<0.05 indicates a significant difference.
# The PIP increase (Pre value, white column) induced by the intravenous ACh administration (40 µg/kg) was 8.40±0.76 cmH2O; while the PIP increase (Post value, black column) after the inhalation of saline, as used for a solvent for LTD4 was 8.30±1.07cmH2.
# Orotic acid and zinc orotate each were suspended in 0.5% MC just before use.
# Orotic acid, zinc orotate (30 mg/kg) or 0.5% MC was intraduodenally administered 30 minutes before the inhalation of saline. The data obtained are expressed as the mean value±standard error of three cases. N.S. (not significant) indicates no statistically significant difference.
# [4] = 100 mg/kg orally 1 hour before OA antigen induction
# [5] = 100 or 300 mg/kg orally 1 hour before OA antigen induction
compound,measurement,setting,value
"O=C(O)c1cc(=O)[nH]c(=O)[nH]1 [orotic acid, uracil-4-carboxylic acid]",Statistical significance of airway hypersensitiveness inhibition,"[1]; dose of 30 mg/kg to the duodenum, versus MC control, p<0.05",showed a statistical significance
same,ID50 of airway hypersensitiveness inhibition,[1],20.1 mg/kg
same,Airway hypersensitiveness inhibition versus control group,[1],showed airway hypersensitiveness inhibition that depends on the increase in the dose
same,Number of eosinophils invaded in BALF,[2]; [4],decreased
same,Number of the total cells invaded in BALF,[2]; [4],decreased
same,"PIP increase (ΔPIP) induced by intravenous ACh, Post value",[3],7.33±1.20 cmH2O
same,"PIP increase (ΔPIP) induced by intravenous ACh, Pre value",[3],7.50±1.04 cmH2O
same,Difference between Pre value and Post value of ACh-induced PIP increase,[3],no significant difference
same,Influence on ACh-induced airway contraction,"[3]; FIG. 1, 30 mg/kg intraduodenal",did not have any influence on airway contraction
"COc1ccc(C2CNC(=O)C2)cc1OC1CCCC1 (centres unmarked) [rolipram, reference compound]","Effect against cell invasion, 24 hours compared with 48 hours after antigen induction","[2]; orally one hour before antigen induction, not illustrated",any significant difference in the cell invasion was not found between 24 hours and 48 hours
zinc orotate,ID50 of airway hypersensitiveness inhibition,[1],16.2 mg/kg
same,Airway hypersensitiveness inhibition versus control group,[1],showed airway hypersensitiveness inhibition that depends on the increase in the dose
same,Number of eosinophils invaded in BALF,[2]; [5],decreased
same,Number of the total cells invaded in BALF,[2]; [5],decreased
same,"PIP increase (ΔPIP) induced by intravenous ACh, Post value",[3],8.00±1.44 cmH2O
same,"PIP increase (ΔPIP) induced by intravenous ACh, Pre value",[3],7.67±1.20 cmH2O
same,Difference between Pre value and Post value of ACh-induced PIP increase,[3],no significant difference
